Assay results: patent publication US3933834A, “Unsymmetrical esters of N-substituted 1,4-dihydropyridine 3,5-dicarboxylic acid” (Bayer Aktiengesellschaft, priority 1972, dated 1976)

Tests used:
hypertensive rats = assay: hypotensive activity: blood pressure of hypertensive rats after peroral administration; assay type: in vivo; details: Rattus norvegicus, po, read-out: Peroral Dose: lowest dose which results in at least a 15 mm Hg reduction in blood pressure
Description: The hypotensive activity of the present compounds can be observed by measuring the blood pressure of hypertensive rats following administration of the compounds.

[1] = toxicity (LD50) measured on mice by peroral administration; details: mouse, in vivo, po
coronary vessels = assay: coronary vessel dilation: rise in oxygen saturation in the coronary sinus in the narcotized, heart-catheterized dog; assay type: in vivo; details: intravenous
Description: They can accordingly be used where either or both of these effects are desired. Thus upon parenteral, oral or sublingual administration, the compounds produce a distinct and long lasting dilation of the coronary vessels which is intensified by a simultaneous nitrite-like effect of reducing the load on the heart. […] The effect on heart metabolism is thus one of energy saving. In addition, the compounds lower the blood pressure of normotonic and hypertonic animals and can thus be used as antihypertensive agents. These properties can be conveniently observed in well known laboratory models. Thus, for example, the coronary vessel dilation effect of the compounds of the invention was compared with the action of Persantin by measuring the rise in oxygen saturation in the coronary sinus in the narcotized, heart-catheterized dog, with the results reported in Table I, below.
^1 Dose given in mg/kg. body weight, administered intravenously;
^2 O2 rise given as % rise in oxygen saturation;
^3 Reversion time given is time in hours for reversion to the initial

CCOC(=O)C1=C(C)N(C)C(C)=C(C(=O)OC)C1c1cccc([N+](=O)[O-])c1 (centres unmarked) [Example 1, 1,2,6-trimethyl-4-(3'-nitrophenyl)-1,4-dihydropyridine-3,5-dicarboxylic acid 3-methyl-ester-5-ethyl-ester]
minimal effective dose (hypertensive rats): 0.3 mg/kg | LD50 [1]: 3000 mg/kg

COC(=O)C1=C(C)N(C)C(C)=C(C(=O)OC(C)C)C1c1cccc([N+](=O)[O-])c1 (centres unmarked) [Example 2, 1,2,6-trimethyl-4-(3'-nitrophenyl)-1,4-dihydropyridine-3,5-dicarboxylic acid 3-methyl-ester-5-isopropyl-ester]
O2 % Rise (rise in oxygen saturation in the coronary sinus) (coronary vessels; 0.01 mg/kg): 31% | Reversion time (to the initial value) (coronary vessels; 0.01 mg/kg): > 3.5 h | minimal effective dose (hypertensive rats): 1 mg/kg | LD50 [1]: 3000 mg/kg

CCOC(=O)C1=C(C)N(C)C(C)=C(C(=O)OC(C)C)C1c1cccc([N+](=O)[O-])c1 (centres unmarked) [Example 3, 1,2,6-trimethyl-4-(3'-nitrophenyl)-1,4-dihydropyridine-3,5-dicarboxylic acid 3-ethyl-ester-5-isopropyl-ester]
O2 % Rise (rise in oxygen saturation in the coronary sinus) (coronary vessels; 0.1 mg/kg): 39% | Reversion time (to the initial value) (coronary vessels; 0.1 mg/kg): > 6 h | minimal effective dose (hypertensive rats): 0.3 mg/kg | LD50 [1]: 3000 mg/kg

C=CCOC(=O)C1=C(C)N(C)C(C)=C(C(=O)OCC)C1c1ccccc1C#N (centres unmarked) [Example 6, 1,2,6-trimethyl-4-(2'-cyanophenyl)-1,4-dihydropyridine-3,5-dicarboxylic acid 3-ethyl-ester-5-allyl-ester]
O2 % Rise (rise in oxygen saturation in the coronary sinus) (coronary vessels; 0.05 mg/kg): 39% | Reversion time (to the initial value) (coronary vessels; 0.05 mg/kg): > 4 h | minimal effective dose (hypertensive rats): 0.3 mg/kg

OCCN(CCO)c1nc(N2CCCCC2)c2nc(N(CCO)CCO)nc(N3CCCCC3)c2n1 [Persantin, reference compound]
O2 % Rise (rise in oxygen saturation in the coronary sinus) (coronary vessels; 0.3 mg/kg): 23% | Reversion time (to the initial value) (coronary vessels; 0.3 mg/kg): 1 to 2 h | O2 % Rise (rise in oxygen saturation in the coronary sinus) (coronary vessels; 0.4 mg/kg): 34% | Reversion time (to the initial value) (coronary vessels; 0.4 mg/kg): 1 to 2 h
